# From PMC6713262 (Cell, 2019)
# Tests used:
# Type in all cases: cell-based
# wild-type CB2 = wild-type CB2 (Homo sapiens, UniProt P34972); experiment: Forskolin-stimulated cAMP accumulation
# CB2 = CB2 (Homo sapiens, UniProt P34972); experiment: β-arrestin2 recruitment assay; details: for Emax (fold): CB2 β-arrestin2; for EC50: EC50, CB2 β-arrestin2
# CB2 G78L = CB2 G78L (Homo sapiens, UniProt P34972, G78L); experiment: Receptor activity at CB2 stabilizing point mutant G78L
# CB2 R242E = CB2 R242E (Homo sapiens, UniProt P34972, R242E); experiment: Receptor activity at CB2 stabilizing point mutant R242E
# Sequence of CB2 R242E (P34972 whole entry R242E): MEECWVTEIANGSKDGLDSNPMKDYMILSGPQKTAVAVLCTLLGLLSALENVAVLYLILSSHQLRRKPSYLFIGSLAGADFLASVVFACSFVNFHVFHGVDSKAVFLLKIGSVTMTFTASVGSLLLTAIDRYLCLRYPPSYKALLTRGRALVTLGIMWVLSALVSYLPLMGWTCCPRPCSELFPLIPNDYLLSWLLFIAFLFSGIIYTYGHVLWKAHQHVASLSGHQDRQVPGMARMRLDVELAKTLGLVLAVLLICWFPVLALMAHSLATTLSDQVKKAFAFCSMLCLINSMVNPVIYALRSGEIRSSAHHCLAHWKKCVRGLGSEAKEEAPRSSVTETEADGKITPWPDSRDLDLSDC
# CB1 = CB1 (Homo sapiens, UniProt P21554); experiment: β-arrestin2 recruitment assay at CB1; details: for Emax (fold): CB1 β-arrestin2
# Sequence of CB1 (P21554 whole entry): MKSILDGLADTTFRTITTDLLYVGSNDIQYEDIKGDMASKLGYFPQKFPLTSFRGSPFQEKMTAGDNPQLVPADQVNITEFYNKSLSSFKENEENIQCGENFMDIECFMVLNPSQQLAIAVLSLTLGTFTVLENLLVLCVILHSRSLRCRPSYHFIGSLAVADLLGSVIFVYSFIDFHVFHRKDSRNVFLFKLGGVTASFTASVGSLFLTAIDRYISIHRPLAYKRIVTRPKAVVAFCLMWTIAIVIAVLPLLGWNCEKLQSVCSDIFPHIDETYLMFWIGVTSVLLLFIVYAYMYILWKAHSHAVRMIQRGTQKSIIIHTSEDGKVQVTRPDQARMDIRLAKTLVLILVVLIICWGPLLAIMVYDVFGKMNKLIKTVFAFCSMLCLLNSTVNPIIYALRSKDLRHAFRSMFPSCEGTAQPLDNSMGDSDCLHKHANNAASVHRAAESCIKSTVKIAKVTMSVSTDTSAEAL
# CB2 T127A = CB2 T127A (Homo sapiens, UniProt P34972, T127A); experiment: Receptor activity at CB2 stabilizing point mutant T127A
# Sequence of CB2 T127A (P34972 whole entry T127A): as the sequence (P34972 whole entry R242E) above, with T127A, E242R counted along it
# CB2 G304E = CB2 G304E (Homo sapiens, UniProt P34972, G304E); experiment: Receptor activity at CB2 stabilizing point mutant G304E
# Sequence of CB2 G304E (P34972 whole entry G304E): as the sequence (P34972 whole entry R242E) above, with E242R, G304E counted along it
# CB2 T153L = CB2 T153L (Homo sapiens, UniProt P34972, T153L); experiment: Receptor activity at CB2 stabilizing point mutant T153L
# Sequence of CB2 T153L (P34972 whole entry T153L): as the sequence (P34972 whole entry R242E) above, with T153L, E242R counted along it
# Sequence of CB2 (P34972 whole entry): as the sequence (P34972 whole entry R242E) above, with E242R counted along it
# Sequence of wild-type CB2 (P34972 whole entry): as the sequence (P34972 whole entry R242E) above, with E242R counted along it
# Sequence of CB2 G78L (P34972 whole entry G78L): as the sequence (P34972 whole entry R242E) above, with G78L, E242R counted along it
SMILES,IC50 (wild-type CB2) [nM],Kb (wild-type CB2) [nM],"Functional profile at CB2 (adenylyl cyclase assay) (wild-type CB2; against CP55,940, Figure 1B)",Functional profile at CB2 (β-arrestin2 recruitment) (CB2),Emax (fold) (CB2; Figure 1C),EC50 (CB2; Figure 1C) [nM],EC50 (CB2; Figure 6C) [nM],IC50 (CB2 G78L) [nM],IC50 (CB2 R242E) [nM],EC50 (CB1) [nM],Functional profile at CB1 (β-arrestin2 recruitment) (CB1),Emax (fold) (CB1; Figure 5C),IC50 (CB2 T127A) [nM],IC50 (CB2 G304E) [nM],IC50 (CB2 T153L) [nM],Emax (fold) (CB2; Figure 6C),Emax (fold) (CB1; Figure 6D)
"Cc1c(C(=O)NC23CC4CC(CC(C4)C2)C3)nn(CCCCCO)c1-c1ccccc1 [AM10257, 1-(5-Hydroxypentyl)-4-methyl-5-phenyl-N-tricyclo[3.3.1.1^3,7]dec-1-yl-1H-pyrazole-3-carboxamide]",35.9 ± 3.2,5.01,competitive antagonist/inverse agonist,competitive antagonist/inverse agonist,0.70 ± 0.05,0.53 ± 0.29,0.2 ± 0.04,59.7 ± 8.1,46.7 ± 11.3,51.5 ± 7.4,partial agonist,2.4 ± 0.1,40.1 ± 4.5,32.1 ± 6.2,46.2 ± 4.6,,
"CC(=O)OCCn1c(=NC(=O)C2C(C)(C)C2(C)C)sc2cc(C)ccc21 [MRI2687, 2-(6-methyl-2-((2,2,3,3-tetramethylcyclopropane-1-carbonyl)imino)benzo[d]thiazol-3(2H)-yl)ethyl acetate]",,,,inverse agonist,,,0.24 ± 0.06,,,114 ± 15,partial agonist,,,,,0.75 ± 0.04,6.0 ± 0.3
"CC(=O)OCCn1c(C)c(C)sc1=NC(=O)C1C(C)(C)C1(C)C [MRI2594, 2-(4,5-dimethyl-2-((2,2,3,3-tetramethylcyclopropane-1-carbonyl)imino)thiazol-3(2H)-yl)ethyl acetate]",,,,agonist,,,0.17 ± 0.03,,,310 ± 54,agonist,,,,,2.0 ± 0.2,28.0 ± 2.0
